Data from patent US20240099304A1, “SYNERGISTIC HERBICIDAL COMPOSITIONS OF METAMIFOP” (Parijat Industries (India) Private Limited, priority 2021, published 2024).

How the values were obtained:
Type in all cases: in vivo
Brachiaria eruciformis = assay: Field efficacy on grass weed in soybean, post-emergence foliar application
Procedure: (§1) As described in the Herbicide Handbook of the Weed Science Society of America, Ninth Edition, 2007, p. 429, “synergism” [is] an interaction of two or more factors such that the effect when combined is greater than the predicted effect based on the response to each factor applied separately. In the Colby method, the expected (or predicted) response of a combination of herbicides is calculated by taking the product of the observed response for each individual component of the combination when applied alone divided by 100 and subtracting this value from the sum of the observed response for each component while applied alone. An unexpected enhancement in efficacy of the combination is then determined by comparing the observed response of the combination to the expected (or predicted) response as calculated from the observed response of each individual component alone. If the observed response of the combination is greater than the expected (or predicted) response, or stated conversely, if the difference between the observed and expected response is greater than zero, then the combination is said to be synergistic or unexpectedly effective. (Colby, S. R., Weeds, 1967(15), p. 20-22). The Colby method required only a single dose of each herbicide applied alone and the mixture of both doses.
(§2) Synergy Study: The following formula was used to calculate the expected activity of mixtures containing active ingredients, A and B:
(§3) • A=Observed efficacy of active ingredient (combination of Metamifop and Imidazolinone herbicides) A at the same concentration as used in the mixture. • B=observed efficacy of active ingredient B at the same concentration as used in the mixture. However, following formula was used to calculate the expected activity of mixtures containing three active ingredients, A, B and C:
(§4) • A=observed efficacy of active ingredient (combination of Metamifop and Imidazolinone herbicides) A at the same concentration as used in the mixture. • B=observed efficacy of active ingredient B at the same concentration as used in the mixture. • C=observed efficacy of active ingredient C at the same concentration as used in the mixture.
(§5) EFFICACY STUDY: The field experiments were carried out to test the synergy of the combination Metamifop, Imazethapyr, and Imazamox in India at various locations like in MP, Maharashtra, Karnataka, and Telangana on farmer's field against soybean weeds during Kharif season. The experiment comprising of 15 treatments including premixed binary and ternary combinations along with their stand-alone molecule using a randomized block design replicated thrice. All the treatments were applied as post-emergence foliar application when the weeds reached to two to four leaf stage. The spray was conducted with the help of Battery-operated Knapsack sprayer. The percentage efficacy was calculated after 14 and 21 days after application of herbicides.
(§6) The weeds present in the experimental fields were echinochloa conola, echinochloa crusgalli, brachiaria euriciformis, rottboellia cochinchinensis, cynodon dactylon, parthenium hyterophorus, digera arvensis, cynotis axillaris, acalypha indica, Commelina benghalensis, celosia argentia, cyperus spp.

Echinochloa crusgalli = assay: as above
Procedure: as §1, §2, §3, §4, §5, §6

[1] = test system: Rottboellia cochinchinensis; assay: as above
Procedure: as §1, §2, §3, §4, §5, §6

Commelina benghalensis = assay: Field efficacy on broad leaf weed in soybean, post-emergence foliar application
Procedure: as §1, §2, §3, §4, §5, §6

Cyanotis axillaris = assay: as above
Procedure: as §1, §2, §3, §4, §5, §6

Parthenium hysterophorus = assay: as above
Procedure: as §1, §2, §3, §4, §5, §6

Soybean = assay: Phytotoxicity in Soybean, visual grading on 0-10 scale; details: soybean, in vivo
Procedure: as §5
Phytotoxic effect of herbicidal combination of Metamifop, Imazethapyr and Imazamox in soyabean: Table 5, 10 show the visual observations and grading on phytotoxicity which was recorded for leaf injury on tip/surface, Epinasty/Hyponasty, and wilting etc. on 0-10 scale (as below) at 1, 3, 7, 14 and 21 days after application of the present herbicidal composition.

[2] = test system: hard to kill broad leaf weeds; assay: Field efficacy, summary on broad leaf weeds
Procedure: as §1, §5

[3] = 14 DAA, Imazethapyr 35 gm ai/ha
[4] = 14 DAA, Imazethapyr 40 gm ai/ha
[5] = 14 DAA, Imazethapyr 50 gm ai/ha
[6] = 14 DAA, Imazethapyr 75.375 gm ai/ha
[7] = 21 DAA, Imazethapyr 35 gm ai/ha
[8] = 21 DAA, Imazethapyr 40 gm ai/ha
[9] = 21 DAA, Imazethapyr 50 gm ai/ha
[10] = 21 DAA, Imazethapyr 75.375 gm ai/ha

Compound: CCc1cnc(C2=NC(C)(C(C)C)C(=O)N2)c(C(=O)O)c1 (stereo not shown) [Imazethapyr]
- % Weed control burn down symptoms generation Observed (Brachiaria eruciformis; [3]): 8%
- % Weed control burn down symptoms generation Observed (Brachiaria eruciformis; [4]): 10%
- % Weed control burn down symptoms generation Observed (Brachiaria eruciformis; [5]): 20%
- % Weed control burn down symptoms generation Observed (Brachiaria eruciformis; [6]): 22%
- % Weed control burn down symptoms generation Observed (Brachiaria eruciformis; [7]): 0%
- % Weed control burn down symptoms generation Observed (Brachiaria eruciformis; [8]): 0%
- % Weed control burn down symptoms generation Observed (Brachiaria eruciformis; [9]): 0%
- % Weed control burn down symptoms generation Observed (Brachiaria eruciformis; [10]): 15%
- % Weed control burn down symptoms generation Observed (Echinochloa crusgalli; [3]): 15%
- % Weed control burn down symptoms generation Observed (Echinochloa crusgalli; [4]): 18%
- % Weed control burn down symptoms generation Observed (Echinochloa crusgalli; [5]): 18%
- % Weed control burn down symptoms generation Observed (Echinochloa crusgalli; [6]): 20%
- % Weed control burn down symptoms generation Observed (Echinochloa crusgalli; [7]): 8%
- % Weed control burn down symptoms generation Observed (Echinochloa crusgalli; [8]): 12%
- % Weed control burn down symptoms generation Observed (Echinochloa crusgalli; [9]): 16%
- % Weed control burn down symptoms generation Observed (Echinochloa crusgalli; [10]): 18%
- % Weed control burn down symptoms generation Observed [1, 3]: 0%
- % Weed control burn down symptoms generation Observed [1, 4]: 0%
- % Weed control burn down symptoms generation Observed [1, 5]: 25%
- % Weed control burn down symptoms generation Observed [1, 6]: 30%
- % Weed control burn down symptoms generation Observed [1, 7]: 0%
- % Weed control burn down symptoms generation Observed [1, 8]: 0%
- % Weed control burn down symptoms generation Observed [1, 9]: 0%
- % Weed control burn down symptoms generation Observed [1, 10]: 0%
- % Weed control burn down symptoms generation Observed (Commelina benghalensis; [3]): 6%
- % Weed control burn down symptoms generation Observed (Commelina benghalensis; [4]): 22%
- % Weed control burn down symptoms generation Observed (Commelina benghalensis; [5]): 35%
- % Weed control burn down symptoms generation Observed (Commelina benghalensis; [6]): 56%
- % Weed control burn down symptoms generation Observed (Commelina benghalensis; [7]): 0%
- % Weed control burn down symptoms generation Observed (Commelina benghalensis; [8]): 13%
- % Weed control burn down symptoms generation Observed (Commelina benghalensis; [9]): 20%
- % Weed control burn down symptoms generation Observed (Commelina benghalensis; [10]): 45%
- % Weed control burn down symptoms generation Observed (Cyanotis axillaris; [3]): 12%
- % Weed control burn down symptoms generation Observed (Cyanotis axillaris; [4]): 25%
- % Weed control burn down symptoms generation Observed (Cyanotis axillaris; [5]): 447%
- % Weed control burn down symptoms generation Observed (Cyanotis axillaris; [6]): 0%
- % Weed control burn down symptoms generation Observed (Cyanotis axillaris; [7]): 0%
- % Weed control burn down symptoms generation Observed (Cyanotis axillaris; [8]): 7%
- % Weed control burn down symptoms generation Observed (Cyanotis axillaris; [9]): 20%
- % Weed control burn down symptoms generation Observed (Cyanotis axillaris; [10]): 36%
- % Weed control burn down symptoms generation Observed (Parthenium hysterophorus; [3]): 0%
- % Weed control burn down symptoms generation Observed (Parthenium hysterophorus; [4]): 6%
- % Weed control burn down symptoms generation Observed (Parthenium hysterophorus; [5]): 11%
- % Weed control burn down symptoms generation Observed (Parthenium hysterophorus; [6]): 28%
- % Weed control burn down symptoms generation Observed (Parthenium hysterophorus; [7]): 0%
- % Weed control burn down symptoms generation Observed (Parthenium hysterophorus; [8]): 4%
- % Weed control burn down symptoms generation Observed (Parthenium hysterophorus; [9]): 6%
- % Weed control burn down symptoms generation Observed (Parthenium hysterophorus; [10]): 15%
- Phytotoxicity score (Soybean; 1 days after application): 0
- Phytotoxicity score (Soybean; 3 days after application): 0
- Phytotoxicity score (Soybean; 7 days after application): 0
- Phytotoxicity score (Soybean; 14 days after application): 0
- Phytotoxicity score (Soybean; 21 days after application): 0
- Control on targeted weeds, applied alone ([2]; at 14 days): no or very less control
- Control on targeted weeds, applied alone ([2]; at 21 days): no or very less control
